In US6455585B1, “Esters derived from substituted phennyl-cyclohexyl compounds” (Vita Invest, S.A., priority 1998, dated 2002):

Key:
Male Swiss mice [1] = test: Hot plate method, analgesic activity in mice; format: in vivo; conditions: for % response time increase on hot plate: 20 μmol/kg, oral adm., n = 20-40; for change in vivo at 15 mg/kg: Mus musculus, ip, 0.5 h, hot plate test, intraperitoneal adm., n = 20, read-out: % response time increase
Method: The pharmacological activity of the products of the present invention was tested in vivo in several experimental models, which are known to evaluate the pain in animals.
The method that was used is described by Eddy N. B. and Leimbach D. (J. Pharm. Exp. Ther. 107: 385-393, 1953). The analgesic effect of the products was evaluated analysing the behaviour of the animals on a hot surface at 55° C.±1° C.
Male Swiss mice weighing 20-25 g were used. The compounds being tested were administered orally or intraperitoneally 1 hour o 30 minutes before starting the test, respectively.
The process consisted of placing the animals on the plate and keeping them in a Plexiglas cylinder 25 cm high and 21 cm […]. The time the animals took to jump off the hot surface was determined. The animals were selected before starting the test so that those that took longer than 10 seconds to jump off were not included in the group that would receive treatment.
30 minutes after administering the product being tested, the test was repeated and the maximum time it took the animals to jump off was again recorded.
The results are expressed as the […] of jump time increase calculated as follows: [formula]
In order to determine the duration of the analgesic effect of the orally administered products, the analgesic activity was evaluated on the hot plate 1, 3, 6, 8, and 24 hours after the administration of the product, as well as the control group which received treatment only with the vehicle. The base responses were evaluated at 30 and 5 minutes prior to administering the products.

Male Swiss mice [2] = test: Determination of the DL50 (acute single dose oral toxicity); format: in vivo; conditions: oral single administration, 14 days observation
Method: b) Determination of the DL50 in the Products.
(EUDRA/S/87/011, Single Dose Toxicity, European Directive 75/318/EEC) (ICH S4, Toxicity Studies, single dose and repeated dose, CPMP vol III Feb. 87, Single dose toxicity)
Male Swiss mice of the same batch weighing 20-25 g are used in order to estimate the acute toxicity of the products.
Prior to administering the products, the animals were forced to fast for 12 hours with no intake of food but free access to water. Several subgroups of 10 animals were randomly selected and orally given increasing doses of the products in single administration, after which they remained under observation for a period of 14 days with free access to water and food. Finally, the number of dead animals of each subgroup was quantified and the value of the DL50 was calculated (1-2).

SMILES | % response time increase on hot plate (Male Swiss mice [1]) [%] | change in vivo at 15 mg/kg (Male Swiss mice [1]) [%] | DL50 approx. Oral adm. (Male Swiss mice [2]) [mg/kg]
COc1cccc(C2(O)CCCCC2CN(C)C)c1 (single isomer, unassigned) [Tramadol, (1R, 2R or 1S, 2S)-2-[(dimethylamino)methyl]-1-(3-methoxyphenyl) cyclohexanol, reference compound] | 87 ± 23 | 218 ± 98 | ~350
CC(C)Cc1ccc(C(C)C(=O)Oc2cccc(C3(O)CCCCC3CN(C)C)c2)cc1 (stereo not drawn) [EXAMPLE 1, 3-(2-Dimethylaminomethyl-1-hydroxycyclohexyl)-phenyl 2-(4-Isobutyl-phenyl)-propionate] | 210 ± 88 | 568 ± 100 | ~900
COc1ccc2cc(C(C)C(=O)Oc3cccc(C4(O)CCCCC4CN(C)C)c3)ccc2c1 (stereo not drawn) [EXAMPLE 2, 3-(2-Dimethylaminomethyl-1-hydroxyyclohexyl)-phenyl 2-(6-Methoxy-naphthalen-2-yl)-propionate] |  | 539 ± 50 | 
CN(C)CC1CCCCC1(O)c1cccc(OC(=O)C2CCn3c(C(=O)c4ccccc4)ccc32)c1 (stereo not drawn) [EXAMPLE 3, 3-(2-Dimethylaminomethyl-1-hydroxycyclohexyl)-phenyl 5-Benzoyl-2,3-dihydro-1H-pyrrolizine-1-carboxylate] |  | 416 ± 146 | 
CC(C)Cc1ccc(C(C)C(=O)Oc2cccc(C3=C(CN(C)C)CCCC3)c2)cc1 (stereo not drawn) [EXAMPLE 4, 3-(2-Dimethylaminomethyl-cyclohex-1-enyl)-phenyl 2-(4-Isobutyl-phenyl)-propionate] |  | 333 ± 134 | 
COc1ccc2cc(C(C)C(=O)Oc3cccc(C4=C(CN(C)C)CCCC4)c3)ccc2c1 (stereo not drawn) [EXAMPLE 5, 3-(2-Dimethylaminomethyl-cyclohex-1-enyl)-phenyl 2-(6-Methoxy-naphthalen-2-yl)-propionate] |  | 356 ± 151 | 
CN(C)CC1CCCCC1(O)c1cccc(OC(=O)c2ccccc2O)c1 (stereo not drawn) [EXAMPLE 6, 3-(2-Dimethylaminomethyl-1-hydroxy-cyclohexyl)-phenyl (RR-SS)-2-hydroxybenzoate] | 248 ± 72 | 546 ± 63 | ~550
CN(C)CC1=C(c2cccc(OC(=O)c3ccccc3O)c2)CCCC1 [EXAMPLE 7, 3-(2-Dimethylaminomethyl-cyclohex-1-enyl)-phenyl 2-Hydroxybenzoate] |  | 634 ± 42 | 
CN(C)CC1CCCCC1(O)c1cccc(OC(=O)c2ccccc2OC(=O)N(C)C)c1 (stereo not drawn) [EXAMPLE 8, 3-(2-Dimethylaminomethyl-1-hydroxy-cyclohexyl)-phenyl (RR-SS)-2-dimethylcarbamoyloxy-benzoate] |  | 327 ± 65 | 
